Reference: ChEMBL document CHEMBL1201862, “PubChem BioAssay data set” (2004)
Activity calls are given as the source filed them.

Tests used:
Cytochrome P450 2C19 = Cytochrome P450 2C19 (Homo sapiens, UniProt P33261); test: Cytochrome panel assay with activity outcomes. Panel member name: p450-cyp2c19 Compounds with AC50 equal or less than 10 uM are considered active; format: functional
[1] = target: T1, Heat shock factor protein 1 (Mus musculus, UniProt P38532); test: inhibition of MG132-induced HSE-luciferase signal, confirmation, cell-based, NIH3T3, luminescence, dose retest (AID 2382); format: functional;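 also: NIH3T3 fibroblasts with HSF1-driven luciferase reporter stressed by proteasome inhibitor MG132; luminescence from HSF1-driven luciferase expression after 8 hours of MG132 stress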
T1 sequence (P38532 whole entry): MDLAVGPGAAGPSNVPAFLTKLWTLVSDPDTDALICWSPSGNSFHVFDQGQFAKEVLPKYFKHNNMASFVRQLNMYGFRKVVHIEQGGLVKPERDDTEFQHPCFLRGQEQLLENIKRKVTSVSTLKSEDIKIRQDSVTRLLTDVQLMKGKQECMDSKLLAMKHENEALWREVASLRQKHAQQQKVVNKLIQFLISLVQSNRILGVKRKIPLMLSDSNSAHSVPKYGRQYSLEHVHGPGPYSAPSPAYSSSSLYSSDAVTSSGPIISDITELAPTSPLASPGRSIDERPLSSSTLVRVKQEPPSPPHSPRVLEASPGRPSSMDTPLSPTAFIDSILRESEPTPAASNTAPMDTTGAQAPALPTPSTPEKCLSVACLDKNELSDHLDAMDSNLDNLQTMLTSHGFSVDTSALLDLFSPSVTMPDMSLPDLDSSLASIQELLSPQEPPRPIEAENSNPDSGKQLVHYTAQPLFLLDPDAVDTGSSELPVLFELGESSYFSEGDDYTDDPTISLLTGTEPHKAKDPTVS

[2] = target: T2, Replicative DNA helicase DnaB (Mycobacterium tuberculosis, UniProt P9WMR3); test: DnaB intein splicing inhibitors, dose response, biochemical, cell-free fluorescence (AID 449749); format: functional
T2 sequence (P9WMR3 whole entry): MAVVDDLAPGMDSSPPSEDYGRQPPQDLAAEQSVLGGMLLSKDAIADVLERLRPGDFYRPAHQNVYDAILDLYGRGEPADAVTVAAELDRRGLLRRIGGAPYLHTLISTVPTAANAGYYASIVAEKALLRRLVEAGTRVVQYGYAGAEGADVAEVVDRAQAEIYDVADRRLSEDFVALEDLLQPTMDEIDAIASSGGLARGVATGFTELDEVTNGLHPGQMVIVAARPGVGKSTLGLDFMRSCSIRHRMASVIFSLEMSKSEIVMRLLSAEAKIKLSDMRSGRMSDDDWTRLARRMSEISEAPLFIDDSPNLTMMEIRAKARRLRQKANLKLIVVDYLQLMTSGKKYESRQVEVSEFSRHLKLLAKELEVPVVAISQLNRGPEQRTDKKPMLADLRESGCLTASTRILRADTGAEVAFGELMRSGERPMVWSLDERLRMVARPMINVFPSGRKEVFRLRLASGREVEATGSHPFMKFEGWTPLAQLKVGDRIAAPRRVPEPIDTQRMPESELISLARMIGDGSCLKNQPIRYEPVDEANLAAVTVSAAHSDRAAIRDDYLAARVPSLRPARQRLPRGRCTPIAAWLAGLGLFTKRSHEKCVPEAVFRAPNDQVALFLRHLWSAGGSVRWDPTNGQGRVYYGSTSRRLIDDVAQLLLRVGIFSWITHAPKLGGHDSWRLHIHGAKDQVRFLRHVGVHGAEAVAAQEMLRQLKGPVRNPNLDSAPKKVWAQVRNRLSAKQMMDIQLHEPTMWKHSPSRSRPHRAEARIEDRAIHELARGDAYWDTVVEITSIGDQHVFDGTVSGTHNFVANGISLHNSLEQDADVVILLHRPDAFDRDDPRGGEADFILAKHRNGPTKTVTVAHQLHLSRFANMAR

Protein RecA = target: T3, Protein RecA (Mycobacterium tuberculosis, UniProt P9WHJ3); test: Fluorescence Cell-Free Homogeneous Dose Retest to Identify Inhibitors of RecA-Intein Splicing Activity. [Related pubchem assays (depositor defined):AID2097, AID2223, AID489010, AID492950]; format: functional
T3 sequence (P9WHJ3 whole entry): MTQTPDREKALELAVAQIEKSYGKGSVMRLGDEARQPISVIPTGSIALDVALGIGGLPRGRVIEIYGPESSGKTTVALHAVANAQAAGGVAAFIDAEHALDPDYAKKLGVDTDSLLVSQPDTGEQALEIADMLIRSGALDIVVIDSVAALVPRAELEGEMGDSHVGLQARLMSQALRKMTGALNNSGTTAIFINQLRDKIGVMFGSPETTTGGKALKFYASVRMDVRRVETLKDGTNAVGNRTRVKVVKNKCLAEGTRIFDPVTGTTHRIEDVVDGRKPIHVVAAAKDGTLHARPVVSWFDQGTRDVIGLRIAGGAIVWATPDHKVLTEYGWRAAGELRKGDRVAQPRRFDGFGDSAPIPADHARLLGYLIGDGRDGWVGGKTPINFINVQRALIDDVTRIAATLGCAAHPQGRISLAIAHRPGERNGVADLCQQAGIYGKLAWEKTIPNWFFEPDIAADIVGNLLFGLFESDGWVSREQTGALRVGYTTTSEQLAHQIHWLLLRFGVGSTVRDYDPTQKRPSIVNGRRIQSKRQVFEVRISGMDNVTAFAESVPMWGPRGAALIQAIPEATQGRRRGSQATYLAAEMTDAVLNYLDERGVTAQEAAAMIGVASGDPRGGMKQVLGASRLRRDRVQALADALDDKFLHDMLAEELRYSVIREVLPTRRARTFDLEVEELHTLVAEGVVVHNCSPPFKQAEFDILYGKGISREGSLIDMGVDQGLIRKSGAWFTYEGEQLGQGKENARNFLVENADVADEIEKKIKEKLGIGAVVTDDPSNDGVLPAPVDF

[3] = target: FAD-linked sulfhydryl oxidase ALR (Homo sapiens, UniProt P55789); test: inhibitors of human ALR sulfhydryl oxidase, dose response, biochemical, H2O2 detection, luminescence, cherry-pick (AID 493248)
Chain of FAD-linked sulfhydryl oxidase ALR (P55789 whole entry): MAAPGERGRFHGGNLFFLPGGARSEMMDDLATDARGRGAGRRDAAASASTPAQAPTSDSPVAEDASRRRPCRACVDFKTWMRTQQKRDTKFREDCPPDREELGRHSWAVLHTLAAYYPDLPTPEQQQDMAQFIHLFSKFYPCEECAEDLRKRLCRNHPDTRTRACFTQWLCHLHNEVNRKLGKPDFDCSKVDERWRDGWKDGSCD

[4] = NIH-3T3 fibroblast cytotoxicity, dose response, cytotoxicity control, cell-based, fluorescence, Alamar Blue, secondary assay (AID 2327); format: functional;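 also: NIH-3T3 mouse fibroblasts cultured with fluconazole at 8 µg/mL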
[5] = C. albicans growth with fluconazole, confirmation, fluorescence, retest (AID 2467); format: functional, cell-based
[6] = target: T4, Rac GTPase-activating protein 1 (Homo sapiens, UniProt Q9H0H5); test: MgcRacGAP GTPase-activating activity inhibitors, confirmation, biochemical, ADP Hunter fluorescence, primary and confirmatory (AID 624330); format: functional
T4 sequence (Q9H0H5 whole entry): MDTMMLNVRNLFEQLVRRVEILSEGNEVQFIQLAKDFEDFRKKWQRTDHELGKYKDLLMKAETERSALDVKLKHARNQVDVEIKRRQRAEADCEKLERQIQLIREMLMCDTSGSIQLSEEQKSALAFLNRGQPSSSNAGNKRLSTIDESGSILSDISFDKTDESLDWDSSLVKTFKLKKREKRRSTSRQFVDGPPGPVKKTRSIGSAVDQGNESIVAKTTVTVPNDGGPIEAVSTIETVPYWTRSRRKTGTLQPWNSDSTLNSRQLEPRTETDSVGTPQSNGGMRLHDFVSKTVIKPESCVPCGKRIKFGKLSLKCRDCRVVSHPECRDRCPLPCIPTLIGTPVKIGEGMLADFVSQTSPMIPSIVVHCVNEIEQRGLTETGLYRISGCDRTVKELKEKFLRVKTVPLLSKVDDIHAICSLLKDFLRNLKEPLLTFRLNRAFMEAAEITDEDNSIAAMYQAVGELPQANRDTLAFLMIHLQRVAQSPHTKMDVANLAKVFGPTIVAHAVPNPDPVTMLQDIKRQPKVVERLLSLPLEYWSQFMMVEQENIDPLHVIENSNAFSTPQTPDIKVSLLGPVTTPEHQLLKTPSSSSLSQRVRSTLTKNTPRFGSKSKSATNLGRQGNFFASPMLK

Cytochrome P450 2C9 = Cytochrome P450 2C9 (Homo sapiens, UniProt P11712)
Chain of Cytochrome P450 2C9 (P11712 whole entry): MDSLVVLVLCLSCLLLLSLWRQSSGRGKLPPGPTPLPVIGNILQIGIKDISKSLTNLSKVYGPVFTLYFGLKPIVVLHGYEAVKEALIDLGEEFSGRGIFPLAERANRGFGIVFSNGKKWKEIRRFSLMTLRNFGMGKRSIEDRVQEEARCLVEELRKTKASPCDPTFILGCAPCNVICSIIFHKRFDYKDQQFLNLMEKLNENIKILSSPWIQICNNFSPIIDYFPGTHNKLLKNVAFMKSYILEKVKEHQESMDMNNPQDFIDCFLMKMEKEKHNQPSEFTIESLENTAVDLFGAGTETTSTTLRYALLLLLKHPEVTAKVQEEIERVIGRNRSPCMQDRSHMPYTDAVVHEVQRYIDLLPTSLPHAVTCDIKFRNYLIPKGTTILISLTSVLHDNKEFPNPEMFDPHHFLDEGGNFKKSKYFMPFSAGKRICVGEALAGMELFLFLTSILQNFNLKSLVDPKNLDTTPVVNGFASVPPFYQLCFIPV

[7] = Shn3 3'UTR reporter inhibitors, dose response, cell-based, Clone20 osteoblasts, firefly luciferase, cherry-picked (AID 624132); format: functional;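 also: firefly luciferase luminescence from reporter carrying the Shn3 3'UTR in osteoblasts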

Chain of Cytochrome P450 2C19 (P33261 whole entry): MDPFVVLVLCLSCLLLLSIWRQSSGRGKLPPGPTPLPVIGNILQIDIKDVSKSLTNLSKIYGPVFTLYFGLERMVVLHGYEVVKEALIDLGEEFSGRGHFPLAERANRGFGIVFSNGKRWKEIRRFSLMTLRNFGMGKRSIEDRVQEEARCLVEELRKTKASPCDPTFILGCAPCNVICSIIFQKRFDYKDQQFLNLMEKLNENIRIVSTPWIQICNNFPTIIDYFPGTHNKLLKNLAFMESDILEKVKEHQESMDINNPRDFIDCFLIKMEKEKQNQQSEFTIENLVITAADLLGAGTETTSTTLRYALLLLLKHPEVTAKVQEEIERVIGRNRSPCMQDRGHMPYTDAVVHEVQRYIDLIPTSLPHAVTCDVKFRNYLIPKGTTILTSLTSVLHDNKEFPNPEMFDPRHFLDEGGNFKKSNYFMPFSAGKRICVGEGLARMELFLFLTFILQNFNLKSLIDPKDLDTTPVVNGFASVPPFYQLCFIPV

Cc1cc(=O)oc(C)c1C(=O)NCc1ccccc1
AC50 (Cytochrome P450 2C19; read-out: AC50): 39.8 µM (inconclusive)

Cc1ccc(NC(=O)CCN2C(=O)C3CCCCC3C2=O)cc1[N+](=O)[O-] (stereo not given)
EC50 [1]: > 195 µM (not active)

COc1nc(NC(C)C)nc(N(C#N)CN2C(=O)c3ccccc3S2(=O)=O)n1
AC50 [2]: 24.4 µM (active)
EC50 (Protein RecA): 26.4 µM (inconclusive)

Cc1ccc(S(=O)(=O)c2ccc(Oc3ccccc3)cc2)cc1
EC50 [1]: 21.5 µM (active)

N=C(NC(=O)c1ccc(Cl)cc1)Nc1nc2ccccc2o1
EC50 [1]: > 195 µM (not active)

CCS(=O)(=O)c1nc(S(=O)(=O)c2ccc(C)cc2)c(N2CCC(C)CC2)s1
EC50 [1]: > 195 µM (not active)

O=C(CNC1=NCCC1)c1ccc(Cl)cc1
AC50 [2]: 127 µM (active)
EC50 (Protein RecA): 23.1 µM (active)

O=C(CN1CCN(c2ccccc2O)CC1)Nc1cccnc1Cl
AC50 [3]: 2.17 µM (active)

Cc1ccc(NNC(=O)c2ccno2)cc1C
EC50 [4]: > 160 µM (inactive)
AC50 [3]: 0.439 µM (active)
EC50 [5]: 0.763 µM (active)

CN(CC(=O)Nc1ccccc1Br)C(=O)c1cccn1C
EC50 [1]: > 195 µM (not active)

CC(=O)Nc1ccc(S(=O)(=O)NC(C)C(=O)NCCc2ccc(F)cc2)cc1 (stereo not given)
AC50 [3]: 0.031 µM (active)

CC(=O)N1CC[n+]2c(-c3ccc(Cl)cc3)csc21
AC50 [3]: 1.88 µM (active)

CN(C)NC(=O)c1ccsc1NC(=O)c1ccc(S(=O)(=O)N2CCCC2)cc1
AC50 [3]: 0.835 µM (active)

C/C(=C\c1ccc(N)cc1)c1nc2ccccc2[nH]1
AC50 [3]: 0.321 µM (active)

O=C(NN=Cc1ccc(O)cc1)c1cc[n+](Cc2ccccc2)cc1
AC50 [3]: 2.05 µM (active)
IC50 [6]: 137 µM (active)

COc1cccc(NC(=S)N(CCC(C)C)C2CCN(C(C)=O)CC2)c1
EC50 [1]: > 195 µM (not active)

COc1ccccc1/C=C/C1(C(=O)NC2CCCC2)CC(=O)N1c1ccc(C)cc1 (stereo not given)
AC50 [2]: 9.29 µM (active)
EC50 (Protein RecA): 8.52 µM (active)

COc1ccc2nc(O)c(CN(Cc3cccs3)S(=O)(=O)c3c(C)ccc4nsnc34)cc2c1
EC50 [1]: 0.503 µM (active)

CCS(=O)(=O)N1CCC(C(=O)NCc2cccnc2)CC1
AC50 (Cytochrome P450 2C9): 11.2 µM (inconclusive)
AC50 (Cytochrome P450 2C19; read-out: AC50): 22.4 µM (inconclusive)

Cc1cc(N=Nc2ccc(Cl)cc2)cc(CN2CCCC2)c1O
EC50 [1]: > 195 µM (not active)

CC(=O)c1cccc(NC(=O)CSc2ncc(C(=O)Nc3ccccc3)c(=O)n2C)c1
AC50 [2]: > 380 µM (inconclusive)
EC50 (Protein RecA): 1.21 µM (active)

CCOC(=O)N1CCN(C(=O)CSCc2ccc(Cl)cc2)CC1
AC50 (Cytochrome P450 2C19; read-out: AC50): 17.8 µM (inconclusive)

O=C(Cc1ccccc1F)Nc1nc2ccccc2[nH]1
AC50 [2]: 0.0489 µM (inconclusive)
EC50 (Protein RecA): > 380 µM (inconclusive)

CCOC(=O)C(C)c1ccc2cc(OC)ccc2c1 (stereo not given)
EC50 [1]: > 195 µM (not active)

CC(C)NS(=O)(=O)c1ccc(OCC(=O)N2CCCC2)c(Cl)c1
EC50 [1]: > 195 µM (not active)

CN(C)c1ccc(NC(=O)CN2CCc3ccccc3C2)cc1
AC50 [3]: 2.23 µM (active)

Fc1ccc(Sc2nc(-c3ccccc3)nnc2C(F)(F)F)cc1
AC50 [2]: 1.45 µM (active)
EC50 (Protein RecA): 0.66 µM (active)

COc1ccc(C(=O)Nc2ccncc2)cc1[N+](=O)[O-]
AC50 [2]: > 380 µM (inactive)
EC50 (Protein RecA): > 380 µM (inactive)

O=C(c1ccc2c(c1)OCO2)N1CCC2(CC1)OCCO2
EC50 [1]: > 195 µM (not active)

CCSc1nnc(NC(=O)c2cccc(S(=O)(=O)N(C)c3ccccc3)c2)s1
AC50 [3]: 2.75 µM (active)

CC(NS(C)(=O)=O)C(c1cccs1)N1CCN(c2ccccc2)CC1 (stereo not given)
AC50 [3]: 2.93 µM (active)

Cc1ccc(C(c2c(C)n[nH]c2O)c2c(C)n[nH]c2O)cc1[N+](=O)[O-]
AC50 [2]: 0.442 µM (active)
EC50 (Protein RecA): 0.195 µM (active)

O=C1CCc2cccc(O)c2N1
AC50 [7]: 12.2 µM (active)

CCc1n[nH]c2c1C(c1ccsc1)C(C#N)=C(N)O2 (stereo not given)
AC50 [2]: 14.5 µM (active)
EC50 (Protein RecA): 9.87 µM (active)

CCC(=O)Oc1oc(-c2ccccc2)nc1/C=N/c1ccccc1OC
EC50 [1]: 10.3 µM (active)

Cn1ccnc1 [1-METHYLIMIDAZOLE]
AC50 (Cytochrome P450 2C19): inconclusive

O=C(O)c1c2ccccc2cc2ccccc12 [ANTHRACENE-9-CARBOXYLIC ACID]
AC50 (Cytochrome P450 2C19; read-out: AC50): 25.1 µM (inconclusive)
